Data: PMC3914206

Legend:
Type in all cases: binding
Details in all cases: Compound Concentration 10 µM
panel of 442 kinases [1] = biological target: T1, panel of 442 kinases (Homo sapiens, UniProt P08069)
T1 construct: purchased KINOMEscan
Source text: (§1) We assessed the selectivity of members of this scaffold using the KINOMEscan methodology across a near comprehensive panel of 442 kinases [[18,27]].

panel of 442 kinases [2] = biological target: T2, panel of 442 kinases (Homo sapiens, UniProt P30530)
T2 construct: purchased KINOMEscan
T2 sequence (P30530 26-894): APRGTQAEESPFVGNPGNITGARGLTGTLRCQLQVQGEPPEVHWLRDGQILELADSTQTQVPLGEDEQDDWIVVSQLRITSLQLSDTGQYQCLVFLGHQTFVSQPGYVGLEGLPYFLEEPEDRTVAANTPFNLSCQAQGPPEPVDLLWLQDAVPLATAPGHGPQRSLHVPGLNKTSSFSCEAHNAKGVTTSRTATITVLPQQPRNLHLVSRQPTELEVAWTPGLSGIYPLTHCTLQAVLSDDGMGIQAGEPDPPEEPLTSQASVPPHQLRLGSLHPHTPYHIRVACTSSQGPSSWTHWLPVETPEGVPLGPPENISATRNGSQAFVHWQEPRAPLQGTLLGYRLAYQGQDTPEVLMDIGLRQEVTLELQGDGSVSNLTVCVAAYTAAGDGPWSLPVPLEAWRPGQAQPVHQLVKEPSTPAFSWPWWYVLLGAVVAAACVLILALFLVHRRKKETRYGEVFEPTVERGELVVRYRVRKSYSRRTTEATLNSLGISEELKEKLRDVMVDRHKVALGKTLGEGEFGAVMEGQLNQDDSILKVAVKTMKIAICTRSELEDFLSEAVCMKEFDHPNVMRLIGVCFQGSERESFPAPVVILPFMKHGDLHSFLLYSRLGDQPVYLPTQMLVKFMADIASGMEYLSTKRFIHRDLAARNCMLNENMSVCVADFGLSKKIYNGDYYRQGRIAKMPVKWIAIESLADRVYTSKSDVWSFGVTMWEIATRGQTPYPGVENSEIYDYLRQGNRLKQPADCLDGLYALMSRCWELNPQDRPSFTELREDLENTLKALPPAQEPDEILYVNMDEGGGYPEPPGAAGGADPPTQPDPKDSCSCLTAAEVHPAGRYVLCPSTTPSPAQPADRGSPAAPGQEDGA
Source text: as §1

panel of 442 kinases [3] = biological target: T3, panel of 442 kinases (Homo sapiens, UniProt Q07002)
T3 construct: purchased KINOMEscan
Source text: as §1

T3 sequence (Q07002 whole entry): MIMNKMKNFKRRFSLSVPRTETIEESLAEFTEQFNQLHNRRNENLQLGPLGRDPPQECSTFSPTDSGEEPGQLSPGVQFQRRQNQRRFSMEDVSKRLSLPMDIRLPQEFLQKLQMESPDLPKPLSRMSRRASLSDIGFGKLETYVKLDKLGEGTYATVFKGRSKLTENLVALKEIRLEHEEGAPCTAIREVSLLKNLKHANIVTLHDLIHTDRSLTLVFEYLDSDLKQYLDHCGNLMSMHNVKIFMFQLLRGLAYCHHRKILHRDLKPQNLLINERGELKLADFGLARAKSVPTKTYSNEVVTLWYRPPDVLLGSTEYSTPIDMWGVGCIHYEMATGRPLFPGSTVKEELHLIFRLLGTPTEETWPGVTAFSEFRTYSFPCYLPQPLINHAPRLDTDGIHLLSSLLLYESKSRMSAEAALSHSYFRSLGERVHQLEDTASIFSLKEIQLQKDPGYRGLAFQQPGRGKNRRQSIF
T1 sequence (P08069 31-1367): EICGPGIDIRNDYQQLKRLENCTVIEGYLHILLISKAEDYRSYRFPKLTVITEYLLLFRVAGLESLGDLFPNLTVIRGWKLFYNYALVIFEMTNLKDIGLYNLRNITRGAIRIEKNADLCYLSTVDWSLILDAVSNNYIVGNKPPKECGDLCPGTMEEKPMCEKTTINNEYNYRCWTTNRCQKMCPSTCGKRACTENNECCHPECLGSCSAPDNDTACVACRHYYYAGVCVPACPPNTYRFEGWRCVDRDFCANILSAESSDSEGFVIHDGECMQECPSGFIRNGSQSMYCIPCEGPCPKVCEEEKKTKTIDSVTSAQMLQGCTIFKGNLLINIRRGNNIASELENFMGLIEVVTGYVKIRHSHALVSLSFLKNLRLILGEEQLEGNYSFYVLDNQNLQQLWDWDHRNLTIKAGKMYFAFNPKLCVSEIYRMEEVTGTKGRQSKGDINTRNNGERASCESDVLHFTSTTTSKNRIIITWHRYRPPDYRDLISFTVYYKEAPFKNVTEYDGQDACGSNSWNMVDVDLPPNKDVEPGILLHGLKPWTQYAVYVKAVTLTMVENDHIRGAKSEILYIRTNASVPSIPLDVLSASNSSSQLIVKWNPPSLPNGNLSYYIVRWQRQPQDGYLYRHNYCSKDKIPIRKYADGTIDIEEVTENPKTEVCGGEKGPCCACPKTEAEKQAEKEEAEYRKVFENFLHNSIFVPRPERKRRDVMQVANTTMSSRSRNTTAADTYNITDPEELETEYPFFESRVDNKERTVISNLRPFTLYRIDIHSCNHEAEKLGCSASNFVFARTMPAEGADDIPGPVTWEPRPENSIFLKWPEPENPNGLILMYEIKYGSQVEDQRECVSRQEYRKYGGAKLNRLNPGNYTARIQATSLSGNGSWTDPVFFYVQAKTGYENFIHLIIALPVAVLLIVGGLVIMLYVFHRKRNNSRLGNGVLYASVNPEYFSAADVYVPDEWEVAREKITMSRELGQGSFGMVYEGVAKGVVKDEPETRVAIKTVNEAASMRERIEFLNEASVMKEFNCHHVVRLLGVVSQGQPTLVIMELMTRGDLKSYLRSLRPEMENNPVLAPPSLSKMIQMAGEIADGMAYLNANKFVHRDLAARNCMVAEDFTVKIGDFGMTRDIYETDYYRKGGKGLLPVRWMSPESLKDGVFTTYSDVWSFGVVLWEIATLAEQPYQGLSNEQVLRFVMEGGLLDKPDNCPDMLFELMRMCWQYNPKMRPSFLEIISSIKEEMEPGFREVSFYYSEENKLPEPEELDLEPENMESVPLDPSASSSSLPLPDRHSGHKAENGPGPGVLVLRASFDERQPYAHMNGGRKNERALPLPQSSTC

| SMILES | KINOMEscan: IGF1R (panel of 442 kinases [1]) | KINOMEscan: AXL (panel of 442 kinases [2]) | KINOMEscan: PCTK3 (panel of 442 kinases [3]) |
| --- | --- | --- | --- |
| CCOc1cc(C(=O)N2CCC(N3CCN(C)CC3)CC2)ccc1Nc1ncc2c(n1)N(C1CCCC1)c1ccccc1C(=O)N2C [Compound 26] | 100 | 93 | 100 |
| COc1cc(C(=O)N2CCC(N3CCN(C)CC3)CC2)ccc1Nc1ncc2c(n1)N(C1CCCC1)c1ccccc1C(=O)N2C [Compound 25, 11-cyclopentyl-2-((2-methoxy-4-(4-(4-methylpiperazin-1-yl)piperidine-1-carbonyl)phenyl)amino)-5-methyl-5H-benzo[e]pyrimido[5,4-b][1,4]diazepin-6(11H)-one] | 89 | 100 | 100 |
| COc1cc(C(=O)N2CCC(N3CCN(C)CC3)CC2)ccc1Nc1ncc2c(n1)N(C)c1ccccc1C(=O)N2C [15 (LRRK2-IN-1)] | 96 | 100 | 100 |
